From patent US20250302817A1, “METHODS FOR TREATING PTEN-MUTANT TUMORS” (Icahn School of Medicine at Mount Sinai, priority 2016, published 2025)

Tested on: gamma-H2AX
Experiment: Gamma-H2AX measurement of DNA damage by flow cytometry
Type: cell-based
Settings: 100 μM leflunomide 48 h or A771726
Procedure: FIG. 4A is a graph showing positively-stained cells labeled with a gamma-H2AX antibody; cells were analyzed by flow cytometry (Student's t-test, *p<0.05, n=3). […] The mean fluorescence intensity (MFI) was determined using flow cytometry (Student's t-test, *p<0.01, n=3). FIG. 4C is a series of representative photographs showing MEFs treated with 150 μM A771726 for 24 h and labeled with EdU and gamma-H2AX. Left: representative confocal microscopy images. Right: quantified EdU and gamma-H2AX colocalized foci (Student's t-test, *p<0.05, n=3). […] Left: representative confocal microscopy images. Right: quantification of the number of foci per cell (Student's t-test, p>0.05, n=6). FIG. 4E is a graph showing the percentage of cells treated with 150 μM A771726 for times indicated and labeled with antibodies to RPA and gamma-H2AX positively staining for RPA alone or both RPA and gamma-H2AX; cells were analyzed by flow cytometry (Student's t-test, *p<0.05, n=4). […] FIGS. 4G and 4H are graphs quantifying the number of chromosomal breaks and multiradial formations per haploid genome (Student's t-test, *p-values on figure, cells scored/replicate>100). […]
FIG. 10D is a bar graph showing a quantitative depiction of the percent cell area with EdU-staining from images in FIG. 4D, used to normalize foci to cell size (Student's t-test, p>0.05, not significant, n=6). […]

`C/C(O)=C(\C#N)C(=O)Nc1ccc(C(F)(F)F)cc1` [teriflunomide, (Z)-2-Cyano-3-hydroxy-but-2-enoic acid-(4trifluoromethylphenyl)-amide] was tested, and the “DNA damage (gamma-H2AX) in PTEN-deficient versus WT cells” value was “augmented DNA damage to a significantly greater degree in PTEN-deficient cells”.
